Measured values as given in patent US10442807B2, “Aryl substituted bicyclic compounds as herbicides” (FMC Corporation, priority 2015, dated 2019).

Legend:
Format in all cases: in vivo
[1] = system: sedge, umbrella (small-flower umbrella sedge, Cyperus difformis); experiment: Test B flooded paddy test, visual plant response rating; conditions: applied to paddy water at 2-leaf stage, rated after 13 to 15 days, scale 0 to 100, 0 is no effect, 100 is complete control
Text: (§1) At time of treatment, test pots were flooded to 3 cm above the soil surface, treated by application of test compounds directly to the paddy water, and then maintained at that water depth for the duration of the test. Treated plants and controls were maintained in a greenhouse for 13 to 15 days, after which time all species were compared to controls and visually evaluated. Plant response ratings, summarized in Table B, are based on a scale of 0 to 100 where 0 is no effect and 100 is complete control. A dash (-) response means no test result.

[2] = system: ducksalad (Heteranthera limosa); experiment: as above; conditions: applied to paddy water at 2-leaf stage, rated after 13 to 15 days, scale 0 to 100, 0 is no effect, 100 is complete control
Text: as §1

[3] = system: barnyardgrass (Echinochloa crus-galli); experiment: as above; conditions: applied to paddy water at 2-leaf stage, rated after 13 to 15 days, scale 0 to 100, 0 is no effect, 100 is complete control
Text: as §1

rice (Oryza sativa) = experiment: as above; conditions: applied to paddy water at 2-leaf stage, rated after 13 to 15 days, scale 0 to 100, 0 is no effect, 100 is complete control
Text: as §1

[4] = system: galium (catchweed bedstraw, Galium aparine); experiment: Test A postemergence application, visual injury rating; conditions: approx. 10 d, 0 = no effect, 100 = complete control
Text: (§2) Seeds of plant species selected from barnyardgrass (Echinochloa crus-galli), kochia (Kochia scoparia), ragweed (common ragweed, Ambrosia elation), ryegrass, Italian (Italian ryegrass, Lolium multiflorum), foxtail, giant (giant foxtail, Setaria faberii), and pigweed (Amaranthus retroflexus), were planted into a blend of loam soil and sand and treated preemergence with a directed soil spray using test chemicals formulated in a non-phytotoxic solvent mixture which included a surfactant. At the same time, plants selected from these weed species and also blackgrass (Alopecurus myosuroides), galium (catchweed bedstraw, Galium aparine), wheat (Triticum aestivum), and corn (Zea mays) were planted in pots containing the same blend of loam soil and sand and treated with postemergence applications of test chemicals formulated in the same manner. Plants ranged in height from 2 to 10 cm and were in the one- to two-leaf stage for the postemergence treatment. Treated plants and untreated controls were maintained in a greenhouse for approximately 10 d, after which time all treated plants were compared to untreated controls and visually evaluated for injury. Plant response ratings, summarized in Table A, are based on a 0 to 100 scale where 0 is no effect and 100 is complete control. A dash (-) response means no test result.

[5] = system: wheat (Triticum aestivum); experiment: as above; conditions: approx. 10 d, 0 = no effect, 100 = complete control
Text: as §2

[6] = system: ryegrass, Italian (Italian ryegrass, Lolium multiflorum); experiment: as above; conditions: approx. 10 d, 0 = no effect, 100 = complete control
Text: as §2

[7] = system: barnyardgrass (Echinochloa crus-galli); experiment: as above; conditions: approx. 10 d, 0 = no effect, 100 = complete control
Text: as §2

[8] = system: foxtail, giant (giant foxtail, Setaria faberii); experiment: as above; conditions: approx. 10 d, 0 = no effect, 100 = complete control
Text: as §2

[9] = system: pigweed (Amaranthus retroflexus); experiment: as above; conditions: approx. 10 d, 0 = no effect, 100 = complete control
Text: as §2

[10] = system: ragweed (common ragweed, Ambrosia elation); experiment: as above; conditions: approx. 10 d, 0 = no effect, 100 = complete control
Text: as §2

corn (Zea mays) = experiment: as above; conditions: approx. 10 d, 0 = no effect, 100 = complete control
Text: as §2

kochia (Kochia scoparia) [11] = experiment: as above; conditions: approx. 10 d, 0 = no effect, 100 = complete control
Text: as §2

[12] = system: blackgrass (Alopecurus myosuroides); experiment: as above; conditions: approx. 10 d, 0 = no effect, 100 = complete control
Text: as §2

[13] = system: ryegrass, Italian (Italian ryegrass, Lolium multiflorum); experiment: Test A preemergence, directed soil spray, visual injury rating; conditions: approx. 10 d, 0 = no effect, 100 = complete control
Text: as §2

[14] = system: barnyardgrass (Echinochloa crus-galli); experiment: as above; conditions: approx. 10 d, 0 = no effect, 100 = complete control
Text: as §2

[15] = system: foxtail, giant (giant foxtail, Setaria faberii); experiment: as above; conditions: approx. 10 d, 0 = no effect, 100 = complete control
Text: as §2

[16] = system: pigweed (Amaranthus retroflexus); experiment: as above; conditions: approx. 10 d, 0 = no effect, 100 = complete control
Text: as §2

[17] = system: ragweed (common ragweed, Ambrosia elation); experiment: as above; conditions: approx. 10 d, 0 = no effect, 100 = complete control
Text: as §2

kochia (Kochia scoparia) [18] = experiment: as above; conditions: approx. 10 d, 0 = no effect, 100 = complete control
Text: as §2

Structure (SMILES)	Galium plant response rating (0 to 100 scale) ([4]; 125 g ai/ha)	Galium plant response rating (0 to 100 scale) ([4]; 500 g ai/ha)	Wheat plant response rating (0 to 100 scale) ([5]; 125 g ai/ha)	Wheat plant response rating (0 to 100 scale) ([5]; 500 g ai/ha)	Ryegrass, Italian plant response rating (0 to 100 scale) ([6]; 125 g ai/ha)	Ryegrass, Italian plant response rating (0 to 100 scale) ([6]; 500 g ai/ha)	Barnyardgrass plant response rating (0 to 100 scale) ([7]; 125 g ai/ha)	Barnyardgrass plant response rating (0 to 100 scale) ([7]; 500 g ai/ha)	Foxtail, Giant plant response rating (0 to 100 scale) ([8]; 125 g ai/ha)	Foxtail, Giant plant response rating (0 to 100 scale) ([8]; 500 g ai/ha)	Pigweed plant response rating (0 to 100 scale) ([9]; 125 g ai/ha)	Pigweed plant response rating (0 to 100 scale) ([9]; 500 g ai/ha)	Ragweed plant response rating (0 to 100 scale) ([10]; 125 g ai/ha)	Ragweed plant response rating (0 to 100 scale) ([10]; 500 g ai/ha)	Corn plant response rating (0 to 100 scale) (corn (Zea mays); 125 g ai/ha)	Corn plant response rating (0 to 100 scale) (corn (Zea mays); 500 g ai/ha)	Kochia plant response rating (0 to 100 scale) (kochia (Kochia scoparia) [11]; 125 g ai/ha)	Kochia plant response rating (0 to 100 scale) (kochia (Kochia scoparia) [11]; 500 g ai/ha)	Blackgrass plant response rating (0 to 100 scale) ([12]; 125 g ai/ha)	Blackgrass plant response rating (0 to 100 scale) ([12]; 500 g ai/ha)	other results
O=C(Nc1ccccc1F)C1C2=NCCCN2CC1c1cccc(C(F)(F)F)c1 (centres unmarked) [Compound 1]	0	0	0	0	0	0	0	60	0	40	0	0	0	0	0	20	0	0	0	0	Plant response rating, Flood, Sedge, Umbrella ([1]; 250 g ai/ha): 50; Plant response rating, Flood, Ducksalad ([2]; 250 g ai/ha): 70; Plant response rating, Flood, Barnyardgrass ([3]; 250 g ai/ha): 0; Plant response rating, Flood, Rice (rice (Oryza sativa); 250 g ai/ha): 0; Ryegrass, Italian plant response rating (0 to 100 scale) ([13]; 125 g ai/ha): 0; Ryegrass, Italian plant response rating (0 to 100 scale) ([13]; 500 g ai/ha): 0; Barnyardgrass plant response rating (0 to 100 scale) ([14]; 125 g ai/ha): 0; Barnyardgrass plant response rating (0 to 100 scale) ([14]; 500 g ai/ha): 70; Foxtail, Giant plant response rating (0 to 100 scale) ([15]; 125 g ai/ha): 0; Foxtail, Giant plant response rating (0 to 100 scale) ([15]; 500 g ai/ha): 60; Pigweed plant response rating (0 to 100 scale) ([16]; 125 g ai/ha): 0; Pigweed plant response rating (0 to 100 scale) ([16]; 500 g ai/ha): 0; Ragweed plant response rating (0 to 100 scale) ([17]; 125 g ai/ha): 0; Ragweed plant response rating (0 to 100 scale) ([17]; 500 g ai/ha): 0; Kochia plant response rating (0 to 100 scale) (kochia (Kochia scoparia) [18]; 125 g ai/ha): 0; Kochia plant response rating (0 to 100 scale) (kochia (Kochia scoparia) [18]; 500 g ai/ha): 0
O=C(Nc1ccccc1F)C1c2nncn2CC1c1cccc(C(F)(F)F)c1 (centres unmarked) [Compound 2, N-(2-fluorophenyl)-6,7-dihydro-6-[3-(trifluoromethyl)phenyl]-5H-pyrrolo[2,1-c]-1,2,4-triazole-7-carboxamide]	50	50	0	50	0	50	60	80	50	90	0	10	0	10	20	40	0	30	40	70	Plant response rating, Flood, Sedge, Umbrella ([1]; 500 g ai/ha): 0; Plant response rating, Flood, Ducksalad ([2]; 500 g ai/ha): 0; Plant response rating, Flood, Barnyardgrass ([3]; 500 g ai/ha): 0; Plant response rating, Flood, Rice (rice (Oryza sativa); 500 g ai/ha): 0; Ryegrass, Italian plant response rating (0 to 100 scale) ([13]; 125 g ai/ha): 0; Ryegrass, Italian plant response rating (0 to 100 scale) ([13]; 500 g ai/ha): 0; Barnyardgrass plant response rating (0 to 100 scale) ([14]; 125 g ai/ha): 60; Barnyardgrass plant response rating (0 to 100 scale) ([14]; 500 g ai/ha): 90; Foxtail, Giant plant response rating (0 to 100 scale) ([15]; 125 g ai/ha): 90; Foxtail, Giant plant response rating (0 to 100 scale) ([15]; 500 g ai/ha): 90; Pigweed plant response rating (0 to 100 scale) ([16]; 125 g ai/ha): 0; Pigweed plant response rating (0 to 100 scale) ([16]; 500 g ai/ha): 0; Ragweed plant response rating (0 to 100 scale) ([17]; 125 g ai/ha): 0; Ragweed plant response rating (0 to 100 scale) ([17]; 500 g ai/ha): 0; Kochia plant response rating (0 to 100 scale) (kochia (Kochia scoparia) [18]; 125 g ai/ha): 0; Kochia plant response rating (0 to 100 scale) (kochia (Kochia scoparia) [18]; 500 g ai/ha): 0
O=C(Nc1ccccc1F)C1C2=NCC(=O)N2CC1c1cccc(C(F)(F)F)c1 (centres unmarked) [Compound 3, N-(2-fluorophenyl)-2,3,6,7-tetrahydro-3-oxo-6-[3-(trifluoromethyl)phenyl]-5H-pyrrolo[1,2-a]imidazole-7-carboxamide]	0	0	0	0	0	10	0	30	20	50	0	0	0	0	0	0	0	0	0	0	Ryegrass, Italian plant response rating (0 to 100 scale) ([13]; 125 g ai/ha): 0; Ryegrass, Italian plant response rating (0 to 100 scale) ([13]; 500 g ai/ha): 0; Barnyardgrass plant response rating (0 to 100 scale) ([14]; 125 g ai/ha): 0; Barnyardgrass plant response rating (0 to 100 scale) ([14]; 500 g ai/ha): 60; Foxtail, Giant plant response rating (0 to 100 scale) ([15]; 125 g ai/ha): 0; Foxtail, Giant plant response rating (0 to 100 scale) ([15]; 500 g ai/ha): 80; Pigweed plant response rating (0 to 100 scale) ([16]; 125 g ai/ha): 0; Pigweed plant response rating (0 to 100 scale) ([16]; 500 g ai/ha): 0; Ragweed plant response rating (0 to 100 scale) ([17]; 125 g ai/ha): 0; Ragweed plant response rating (0 to 100 scale) ([17]; 500 g ai/ha): 0; Kochia plant response rating (0 to 100 scale) (kochia (Kochia scoparia) [18]; 125 g ai/ha): 0; Kochia plant response rating (0 to 100 scale) (kochia (Kochia scoparia) [18]; 500 g ai/ha): 0
